Results on one compound are retold here after patent US12584896B2, “Process for quantification of metal amino acid chelates in solutions and solids” (Premex, Inc., priority 2018, dated 2026).

A short description of the series: pKa's of phytic acid (ionization of phosphate groups). It is filed as physicochemical. The text has this: A liquid sample was reacted with phytic acid. The reaction between the compounds and the phytic acid was at a pH of 3.0. Phytic acid ionization began via phosphates group in the following order: (a) P1, and P3 at a pH of from about 1.5 to about 2.0; (b) P4 and P6 at a pH of from about 2.0 to about 2.5; (c) P2 and at a pH of about 2 .5; and (d) P5 at a pH of from about 3.0 to about 5.0 (see FIGS. 1 and 2).

The pKa is the pH at which an ionisable group is half protonated. A higher pKa goes with a weaker acid or stronger base.

Regarding `O=P(O)(O)O[C@H]1[C@H](OP(=O)(O)O)[C@@H](OP(=O)(O)O)[C@H](OP(=O)(O)O)[C@@H](OP(=O)(O)O)[C@H]1OP(=O)(O)O` [phytic acid], the pKa stood at 9.3.
